Test results from PubChem BioAssay AID743470 (Broad Institute, 2014).
Inconclusive results are not listed. Activity calls are given as the source filed them.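 The calls were made as follows: active = fitted curve falls past -35% at a concentration up to twice the top valid dose; inconclusive = no clear call, values can overlap the other calls; inactive = signal rising instead of falling, plus the rest.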

tested on: HEK293T viability, CellTiter-Glo ATP luminescence, 72 h; assay: HEK293 cell cytotoxicity, dose response, cytotoxicity control, luminescence, dry powder, set 15 (AID 743470); conditions: not given

Row | Structure (SMILES) | AC35 [µM]
1 | CC(C)(O)CCc1ccc(O)c2c(=O)c3c(O)c4c(cc3oc12)O[C@H]1OC=C[C@@]41O | 0.0808
2 | Clc1ccccc1-c1nnc2n1N=C(c1ccc3c(c1)OCO3)CS2 | 3.54
3 | COc1ccc(S(=O)(=O)N(C(C)=O)c2ccc(OC(C)=O)c3ccccc23)cc1[N+](=O)[O-] | 21.5
4 | CN1CCN(CCOc2cc(OC3CCOCC3)c3c(Nc4c(Cl)ccc5c4OCO5)ncnc3c2)CC1 | 23.8
5 | Nc1ccn([C@@H]2O[C@H](CO)[C@H](O)C2O)c(=O)n1 (stereo partly drawn) | 3.18
6 | CN(C)c1ccc2c(c1)OC(N)=C(C#N)C2c1cccc(F)c1 (stereo not drawn) | 0.586
7 | COc1ccc(C2=Nn3c(nnc3-c3ccccc3Cl)SC2)cc1OC | 6.79
8 | COc1cc(C2C(C#N)=C(N)Oc3cc(N(C)C)ccc32)cc2c1OCO2 (stereo not drawn) | 0.184
9 | CCc1c2c(nc3ccc(O)cc13)-c1cc3c(c(=O)n1C2)COC(=O)C3(O)CC (stereo not drawn) | 0.0239
10 | COc1ccc(S(=O)(=O)N2CC[C@@H]3[C@@H](CO)Nc4ccc(-c5ccc(C#N)cc5)cc4[C@@H]32)cc1 | 6.16
11 | N#CC1=C(N)Oc2cc(N)ccc2C1c1cccc(F)c1 (stereo not drawn) | 4.67
12 | Nc1ncnc2c1c(-c1cccc(OCc3ccccc3)c1)cn2C1CC(CN2CCCC2)C1 (stereo not drawn) | 9.93
13 | Cc1nc(Nc2ncc(C(=O)Nc3c(C)cccc3Cl)s2)cc(N2CCN(CCO)CC2)n1 | 38.2
14 | CCOC(=O)CCNc1cc(N2CCc3ccccc3CC2)nc(-c2ccccn2)n1 | 9.37
15 | N#CC1=C(N)Oc2cc(N)ccc2C1c1ccccc1 (stereo not drawn) | 17.4
16 | CC[C@]1(O)CC2CN(CCc3c([nH]c4ccccc34)[C@@](C(=O)OC)(c3cc4c(cc3OC)N(C=O)[C@H]3[C@@](O)(C(=O)OC)[C@H](OC(C)=O)[C@]5(CC)C=CCN6CC[C@]43[C@@H]65)C2)C1 (stereo partly drawn) | 0.651
17 | CC[C@@]1(O)C(=O)OCc2c1cc1n(c2=O)Cc2cc3c(CN(C)C)c(O)ccc3nc2-1 | 0.181
18 | CC1(C)CC(c2nc(-c3ccc4ccc(-c5ccccc5)nc4c3)c3c(N)nccn23)C1 | 4.66
19 | COc1ccc(C2=Nn3c(nnc3-c3ccccc3OC)SC2)cc1OC | 0.377
20 | CC(C)N1c2ccccc2C(c2ccc(F)cc2)C1/C=C/C(O)CC(O)CC(=O)O (stereo not drawn) | 4.91
21 | C=C([C@@H](O)[C@@H](C)O)[C@@H](OC)[C@]1(C)Cc2cc3cc(O[C@H]4CC(OC5CC(O)C(O)C(C)O5)C(O)C(C)O4)cc(O)c3c(O)c2C(=O)[C@H]1OC1CC(OC2CC(OC3CC(C)(O)C(O)C(C)O3)C(O)C(C)O2)C(O)C(C)O1 (stereo partly drawn) | 0.188
22 | Cc1cc(Nc2cc(N3CCN(C)CC3)nc(Sc3ccc(NC(=O)C4CC4)cc3)n2)n[nH]1 | 3.09
23 | COc1ccc(-c2cc(NC=O)c3ncc(-c4ccc(OC)c(OC)c4)n3c2)cc1 | 5.61

tested on: not listed separately; assay: as above; conditions: HEK293T viability, CellTiter-Glo ATP luminescence, 72 h; at 1.35 µM (top of the series)

Row | Structure (SMILES) | activity change, negative = cytotoxicity
24 | COc1cc([C@@H]2c3cc4c(cc3[C@@H](O[C@@H]3O[C@@H]5CO[C@@H](C)O[C@H]5[C@H](O)[C@H]3O)[C@H]3COC(=O)[C@H]23)OCO4)cc(OC)c1O | -29% (inactive)

same assay, conditions: HEK293T viability, CellTiter-Glo ATP luminescence, 72 h; at 1.6 µM (top of the series)

Row | Structure (SMILES) | activity change, negative = cytotoxicity
25 | CCN(CCO)CCCOc1ccc2c(Nc3cc(CC(=O)Nc4cccc(F)c4)[nH]n3)ncnc2c1 | 43.7% (inactive)

same assay, conditions: HEK293T viability, CellTiter-Glo ATP luminescence, 72 h; at 6 µM (top of the series)

Row | Structure (SMILES) | activity change, negative = cytotoxicity
26 | Clc1ccc(-c2cnc3ccc(-c4ccccc4)cn23)cc1 | 7.25% (inactive)
27 | CCC(C)(C)C(=O)O[C@H]1C[C@@H](C)C=C2C=C[C@H](C)[C@H](CC[C@@H]3C[C@@H](O)CC(=O)O3)[C@H]21 | 11.4% (inactive)

same assay, conditions: HEK293T viability, CellTiter-Glo ATP luminescence, 72 h; at 8 µM (top of the series)

Row | Structure (SMILES) | activity change, negative = cytotoxicity
28 | COc1ccc(C2=Nn3c(nnc3-c3ccccc3F)SC2)cc1OC | -35.4% (inactive)
29 | COc1ccc(S(=O)(=O)N2CC[C@@H]3[C@@H](CO)N(C)c4ccc(-c5ccc(F)cc5)cc4[C@@H]32)cc1 | 0.125% (inactive)
30 | COc1ccc(S(=O)(=O)N2CC[C@@H]3[C@H](CO)Nc4ccc(-c5ccc(C#N)cc5)cc4[C@@H]32)cc1 | -17.6% (inactive)

same assay, conditions: HEK293T viability, CellTiter-Glo ATP luminescence, 72 h; at 12 µM (top of the series)

Row | Structure (SMILES) | activity change, negative = cytotoxicity
31 | COc1ccc(C(=O)CC2(O)C(=O)Nc3c(Cl)ccc(Cl)c32)cc1 (stereo not drawn) | -19.6% (inactive)
32 | COc1ccc(OC)c(-c2nnc3n2N=C(c2ccc(OC)c(OC)c2)CS3)c1 | -29.9% (inactive)
33 | COc1ccc(NC(=O)Nc2ccc3c(c2)C(=O)N([C@@H](C)CO)C[C@H](C)[C@H](CN(C)Cc2ccc4c(c2)OCO4)O3)cc1 | 20.2% (inactive)

same assay, conditions: HEK293T viability, CellTiter-Glo ATP luminescence, 72 h; at 26 µM (top of the series)

Row | Structure (SMILES) | activity change, negative = cytotoxicity
34 | Cc1cccc(C2C(C#N)=C(N)Oc3cc(N)ccc32)c1 (stereo not drawn) | -30.4% (inactive)
35 | Cc1c([C@H](C(Cl)Cl)[C@H](O)[C@H]2C[C@H](C)C(=O)O2)ccc2c1C(=O)[C@H]1[C@H]2C[C@@H](Br)[C@@]23O[C@@H](CO[C@H]2O)C[C@]13C | -35.3% (inactive)
36 | CCCCc1ccc2nc(NC(=O)OC)[nH]c2c1 | -29.4% (inactive)
37 | COc1cc(Nc2ncc3c(n2)-c2ccc(Cl)cc2C(c2c(F)cccc2OC)=NC3)ccc1C(=O)O | 24.7% (inactive)
38 | C[C@]1(c2nc3c(C(N)=O)cccc3[nH]2)CCCN1 | -21.6% (inactive)
39 | Cc1ccc(C2C(C#N)=C(N)Oc3cc(N)ccc32)cc1 (stereo not drawn) | -10.5% (inactive)
40 | COc1ccccc1S(=O)(=O)N1CC[C@@H]2[C@@H](CO)Nc3ccc(-c4ccc(C#N)cc4)cc3[C@@H]21 | -22.8% (inactive)
41 | COc1ccc(-c2cc(NC(C)=O)c3ncc(-c4ccc(OC)c(OC)c4)n3c2)cc1 | -25.2% (inactive)
42 | N#CC1=C(N)Oc2cc(N)ccc2C12C(=O)Nc1ccc(Br)cc12 (stereo not drawn) | 5.19% (inactive)
43 | O=C(Nc1c(Cl)cncc1Cl)c1ccc(OC(F)F)c(OCC2CC2)c1 | -18.6% (inactive)
44 | COc1ccc(C2C(C#N)=C(N)Oc3cc(N)ccc32)cc1 (stereo not drawn) | -0.135% (inactive)
45 | N#CC1=C(N)Oc2cc(N)ccc2C1c1ccc(Cl)cc1 (stereo not drawn) | -11.1% (inactive)
46 | COC(=O)c1ccc(C2C(C#N)=C(N)Oc3cc(N)ccc32)cc1 (stereo not drawn) | 19.4% (inactive)
47 | N#Cc1ccc(-c2ccc3c(c2)[C@H]2[C@H](CCN2S(=O)(=O)c2cccc(F)c2)[C@@H](CO)N3)cc1 | -39.9% (inactive)
48 | CN(C(=O)CCCOc1ccc2[nH]c(=O)ccc2c1)C1CCCCC1 | 27% (inactive)
49 | COc1ccc(OC)c(-c2nnc3n2N=C(c2ccc(OC)c(OC)c2)CS3)c1 | -31.5% (inactive)
50 | COc1ccc(CNc2nc(N3CCC[C@H]3CO)ncc2C(=O)NCc2ncccn2)cc1Cl | -1.87% (inactive)
51 | Cc1ccccc1C1C(C#N)=C(N)Oc2cc(N)ccc21 (stereo not drawn) | -16.9% (inactive)
52 | Cc1ccc([N+](=O)[O-])cc1S(=O)(=O)N(C)C | -23.2% (inactive)

Row | Structure (SMILES) | activity change, negative = cytotoxicity
53 | N#CC1=C(N)Oc2cc(N)ccc2C1c1ccc2ccccc2c1 (stereo not drawn) | -9.63% (inactive)
54 | COc1ccc(C2CNC(=O)C2)cc1OC1CCCC1 (stereo not drawn) | -2.74% (inactive)
55 | COc1ccccc1-c1nnc2n1N=C(c1ccc3c(c1)OCO3)CS2 | -39.2% (inactive)
56 | N#Cc1ccc(-c2ccc3c(c2)[C@H]2[C@H](CCN2S(=O)(=O)c2ccccc2F)[C@@H](CO)N3)cc1 | -7.37% (inactive)
57 | Cc1ccc(S(=O)(=O)N2CC[C@@H]3[C@@H](CO)Nc4ccc(-c5ccc(C#N)cc5)cc4[C@@H]32)cc1 | 17.9% (inactive)
58 | N#CC1=C(N)Oc2ccc3ccccc3c2C1c1cccc(F)c1 (stereo not drawn) | -9.08% (inactive)
59 | CN1c2ccc(-c3ccc(C#N)cc3)cc2[C@H]2[C@H](CCN2S(=O)(=O)c2ccc(F)cc2)[C@H]1CO | 13.6% (inactive)
60 | COc1ccc(-c2ccc3c(c2)[C@H]2[C@H](CCN2S(=O)(=O)c2ccc(OC)cc2)[C@@H](CO)N3C)cc1 | -44.3% (inactive)
61 | N#CC1=C(N)Oc2cc(OC(=O)c3ccccc3)ccc2C1c1cccc(Br)c1 (stereo not drawn) | -25.6% (inactive)
62 | N#CC1=C(N)Oc2cc3c(cc2C1c1cccc(Br)c1)OCO3 (stereo not drawn) | -44.4% (inactive)
63 | COc1cccc(C2C(C#N)=C(N)Oc3cc(N)ccc32)c1 (stereo not drawn) | -23.2% (inactive)
64 | CN1c2ccc(-c3ccc(C#N)cc3)cc2[C@H]2[C@H](CCN2S(=O)(=O)c2cccc(F)c2)[C@H]1CO | -71.9% (inactive)
65 | N#CC1=C(N)Oc2cc(O)ccc2C1c1cccc(Br)c1 (stereo not drawn) | -24.3% (inactive)
66 | COc1ccc(-c2ccc3c(c2)[C@H]2[C@H](CCN2S(=O)(=O)c2ccc(OC)cc2)[C@@H](CO)N3)cc1 | -6.28% (inactive)
67 | COc1ccc(C2=Nn3c(nnc3-c3ccccc3)SC2)cc1OC | -1.77% (inactive)
68 | COc1cccc(S(=O)(=O)N2CC[C@@H]3[C@@H](CO)Nc4ccc(-c5ccc(C#N)cc5)cc4[C@@H]32)c1 | -26.5% (inactive)
69 | N#CC1=C(N)Oc2cc(N)ccc2C1c1cccc(Br)c1 (stereo not drawn) | -38% (inactive)
70 | COc1ccc(S(=O)(=O)N2CC[C@@H]3[C@@H](CO)Nc4ccc(-c5cccc(C#N)c5)cc4[C@@H]32)cc1 | -20.5% (inactive)

same assay, conditions: HEK293T viability, CellTiter-Glo ATP luminescence, 72 h; at 50 µM (top of the series)

Row | Structure (SMILES) | activity change, negative = cytotoxicity
71 | CCC(C)C(=O)OC1CC(C)C=C2C=CC(C)C(CCC(O)CC(O)CC(=O)O)C21 (stereo not drawn) | 55.2% (inactive)
72 | O=P1(NCCCl)OCCCN1CCCl (stereo not drawn) | 9.21% (inactive)

same assay, conditions: HEK293T viability, CellTiter-Glo ATP luminescence, 72 h; at 110 µM (top of the series)

Row | Structure (SMILES) | activity change, negative = cytotoxicity
73 | O=C(c1cc(Cc2n[nH]c(=O)c3ccccc23)ccc1F)N1CCN(C(=O)C2CC2)CC1 | 31.3% (inactive)
